Measurements taken from ChEMBL document CHEMBL1201862, “PubChem BioAssay data set” (2004).
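Where inhibition never reached the appropriate level, the endpoint shown equals the highest concentration tested. Otherwise, values were interpolated linearly from a five-concentration, 48-hour dose response in 96-well plates. GI50 is the concentration that inhibits growth by half.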 The source made the active and inactive calls. No stated cut-off is given here; in the data, active = GI50 up to about 1.1 µM and inactive = higher.

Legend:
Assay in all cases: NCI tumour cell line growth inhibition, 48 h
CCRF-CEM = test system: CCRF-CEM
COLO 205 = test system: COLO 205
DU-145 = test system: DU-145
EKVX = test system: EKVX
HCT-15 = test system: HCT-15
HOP-92 = test system: HOP-92
HT-29 = test system: HT-29
K562 = test system: K562
M14 = test system: M14
MDA-MB-435 = test system: MDA-MB-435
MDA-N = test system: MDA-N
Malme-3M = test system: Malme-3M
NCI-H23 = test system: NCI-H23
RPMI-8226 = test system: RPMI-8226
SF-295 = test system: SF-295
SF-539 = test system: SF-539
SK-MEL-2 = test system: SK-MEL-2
SNB-75 = test system: SNB-75
SR = test system: SR
UACC-62 = test system: UACC-62

| SMILES | GI50 (CCRF-CEM) | GI50 (COLO 205) | GI50 (DU-145) | GI50 (EKVX) | GI50 (HCT-15) | GI50 (HOP-92) | GI50 (HT-29) | GI50 (K562) | GI50 (M14) | GI50 (MDA-MB-435) | GI50 (MDA-N) | GI50 (Malme-3M) | GI50 (NCI-H23) | GI50 (RPMI-8226) | GI50 (SF-295) | GI50 (SF-539) | GI50 (SK-MEL-2) | GI50 (SNB-75) | GI50 (SR) | GI50 (UACC-62) |
| --- | --- | --- | --- | --- | --- | --- | --- | --- | --- | --- | --- | --- | --- | --- | --- | --- | --- | --- | --- | --- |
| COc1ccc2oc(=O)c(-c3nc4ccccc4o3)cc2c1 | > 100 µM (inactive) | 81.7 µM (inactive) | > 100 µM (inactive) | > 100 µM (inactive) | 59 µM | > 100 µM (inactive) | > 100 µM (inactive) | 69.5 µM (inactive) | > 100 µM (inactive) | 16.7 µM (inactive) | 29.1 µM (inactive) | > 100 µM (inactive) | > 100 µM (inactive) | 98.2 µM (inactive) | 61.7 µM (inactive) | > 100 µM (inactive) | > 100 µM (inactive) | 55.1 µM (inactive) | 5.25 µM (inactive) | 65 µM (inactive) |
| CC(C)CNC(=O)O | > 100 µM (inactive) | > 100 µM (inactive) | > 100 µM (inactive) | > 100 µM (inactive) | > 100 µM | > 100 µM (inactive) | > 100 µM (inactive) | > 100 µM (inactive) | > 100 µM (inactive) | > 100 µM (inactive) | > 100 µM (inactive) | > 100 µM (inactive) | > 100 µM (inactive) | > 100 µM (inactive) | > 100 µM (inactive) | > 100 µM (inactive) | > 100 µM (inactive) | > 100 µM (inactive) | > 100 µM (inactive) | > 100 µM (inactive) |
| Oc1ccc2ccccc2c1/C=C/c1ccc2c(Br)cc(Br)c(O)c2n1 | 2.38 µM (inactive) | 4.86 µM (inactive) | 12 µM (inactive) | 3.11 µM (inactive) | 0.787 µM | 11.5 µM (inactive) | 9.73 µM (inactive) | 3.11 µM (inactive) | 7.38 µM (inactive) | 11.8 µM (inactive) | 9.71 µM (inactive) | 12.7 µM (inactive) | 5.96 µM (inactive) | 4.06 µM (inactive) | 4.32 µM (inactive) | 2.53 µM (inactive) | 8.34 µM (inactive) | 15.2 µM (inactive) | 3.12 µM (inactive) | 6.01 µM (inactive) |
| Cc1[nH]c(=O)nc(N/N=C/c2ccc(Cl)cc2)c1C(=O)Nc1ccc(Cl)cc1 | > 66.7 µM (inactive) | 25.6 µM (inactive) | > 100 µM (inactive) | > 86.5 µM (inactive) | 38.5 µM | 28.8 µM (inactive) | 24.1 µM (inactive) | 22.9 µM (inactive) | 8.07 µM (inactive) | 39.4 µM (inactive) | 31.6 µM (inactive) | 16.9 µM (inactive) | 30.7 µM (inactive) | 22.1 µM (inactive) | 20.6 µM (inactive) | 21.2 µM (inactive) | 76.6 µM (inactive) | 6.05 µM (inactive) | 44.3 µM (inactive) | 47.3 µM (inactive) |
| CC(=O)NC1C(OCc2ccccc2)OC(CO)C(O)C1OC(C)C(=O)NC(C)C(=O)NC(CCC(=O)NCCCNc1c2ccccc2nc2cccc([N+](=O)[O-])c12)C(N)=O (stereo not given) | 7.48 µM (inactive) | 0.57 µM (active) | 1.56 µM (inactive) | 3.57 µM (inactive) | 1.67 µM | 1.99 µM (inactive) | 0.29 µM (active) | 1.17 µM (inactive) | 1.97 µM (inactive) | 1.16 µM (inactive) | 1.25 µM (inactive) | 2.21 µM (inactive) | 2.55 µM (inactive) | 0.59 µM (active) | 3.26 µM (inactive) | 3.86 µM (inactive) | 1.32 µM (inactive) | 1.99 µM (inactive) | 5.48 µM (inactive) | 1.25 µM (inactive) |
| COc1ccccc1NC(=S)NN=C(C)c1cccc(C(C)=NNC(=S)Nc2ccccc2OC)n1 | 4.78 µM (inactive) | 19.6 µM (inactive) | 24 µM (inactive) | 24 µM (inactive) | 28.5 µM | 21.7 µM (inactive) | 18 µM (inactive) | 20 µM (inactive) | 5.06 µM (inactive) | 23 µM (inactive) | 70.5 µM (inactive) | 3.49 µM (inactive) | 33.9 µM (inactive) | 24.6 µM (inactive) | 26.8 µM (inactive) | 19.9 µM (inactive) | 44.9 µM (inactive) | 94.6 µM (inactive) | 1.66 µM (inactive) | 20.5 µM (inactive) |
| O=C1c2ccccc2C(=O)c2c(NCCNC(=O)C3CCCN3)ccc(NCCNC(=O)C3CCCN3)c21 (stereo not given) | 18.8 µM (inactive) | 24.5 µM (inactive) | 70.1 µM (inactive) | > 100 µM (inactive) | > 100 µM | 41 µM (inactive) | 47.4 µM (inactive) | 19.2 µM (inactive) | > 100 µM (inactive) | 55.8 µM (inactive) | 46.5 µM (inactive) | 95.9 µM (inactive) | 52.8 µM (inactive) | 22.6 µM (inactive) | > 100 µM (inactive) | 44.6 µM (inactive) | > 100 µM (inactive) | 53.3 µM (inactive) | 22 µM (inactive) | 38.7 µM (inactive) |
| Cc1nc2c(C)ccc([N+](=O)[O-])c2c(NCCCN(C)C)c1C | 51.6 µM (inactive) | 23.9 µM (inactive) | > 100 µM (inactive) | > 59.7 µM (inactive) | > 39.4 µM | > 100 µM (inactive) | 24.7 µM (inactive) | 32.3 µM (inactive) | 19.5 µM (inactive) | 39.2 µM (inactive) | 33.1 µM (inactive) | 29 µM (inactive) | > 75.9 µM (inactive) | 52.6 µM (inactive) | 38.4 µM (inactive) | > 76.9 µM (inactive) | > 44.6 µM (inactive) | > 65.3 µM (inactive) | 38.3 µM (inactive) | 37.2 µM (inactive) |
| CCOC(=O)Cn1c(=O)c2nc(SC)sc2n(-c2ccc(C)cc2)c1=S | > 100 µM (inactive) | > 100 µM (inactive) | 98.4 µM (inactive) | 74.3 µM (inactive) | > 100 µM | 21.6 µM (inactive) | > 87.3 µM (inactive) | > 100 µM (inactive) | > 61.7 µM (inactive) | 99.5 µM (inactive) | > 100 µM (inactive) | 40.4 µM (inactive) | > 49 µM (inactive) | > 100 µM (inactive) | > 71.6 µM (inactive) | 36.1 µM (inactive) | 23.7 µM (inactive) | 9.71 µM (inactive) | > 100 µM (inactive) | 43.8 µM (inactive) |
| CC[C@](O)(CC(=O)O[C@H]1C(=O)O[C@@H]2C[C@H]3C(C)=CC(=O)[C@@H](O)[C@]3(C)[C@H]3[C@@]4(O)OC[C@]32[C@@H]1[C@@H](C)[C@H]4O)C(C)C | < 0.01 µM (active) | < 0.01 µM (active) | < 0.01 µM (active) | < 0.01 µM (active) | < 0.01 µM | < 0.01 µM (active) | < 0.01 µM (active) | < 0.01 µM (active) | < 0.01 µM (active) | < 0.01 µM (active) | < 0.01 µM (active) | < 0.01 µM (active) | < 0.01 µM (active) | < 0.01 µM (active) | < 0.01 µM (active) | < 0.01 µM (active) | < 0.01 µM (active) | < 0.01 µM (active) | < 0.01 µM (active) | < 0.01 µM (active) |
| O=C1C=CC(=O)c2c(O)ccc(O)c21 [NAPHTHAZALIN] | 0.155 µM (active) | 0.807 µM (active) | 14.8 µM (inactive) | 2.75 µM (inactive) | 0.753 µM | 1.69 µM (inactive) | 2.17 µM (inactive) | 0.425 µM (active) | 0.581 µM (active) | 3.68 µM (inactive) | 2.75 µM (inactive) | 1.18 µM (inactive) | 2.61 µM (inactive) | 0.436 µM (active) | 7.91 µM (inactive) | 2.49 µM (inactive) | 7.64 µM (inactive) | 2.09 µM (inactive) | 0.222 µM (active) | 1.48 µM (inactive) |
